The test system of data set [1] is Candida albicans (strain SC5314). Briefly: G418 sensitivity assay. The data set is classed as cell-based. The settings on record: G418 100 μg/ml, overnight at 37° C., OD600 nm, concentration giving 50% reduction in cell growth relative to culture with G418 alone. Here is the method: This assay is based upon the observed increased sensitivity of the pmt1−/− Candida strain to Geneticin (G418) (6). 100 μl of a 0.1OD600 nm culture of Candida albicans (strain SC5314) is placed into a 96 well plate in the presence or absence of varying concentrations of test compound. The compounds are initially dissolved in DMSO and added to the cultures at a final DMSO concentration of 1%. G418 is added to a final concentration of 100 μg/ml. In the absence of PMT1 inhibition, this concentration of G418 has no effect on the proliferation of the organism. The cultures are grown overnight at 37° C. and cell density is then estimated by an OD600 nm measurement. The effect of the test compound is calculated as the concentration that gives a 50% reduction in cell growth relative to the culture with G418 alone.

The target in data set [2] is T1, Candida albicans PMT-1 enzyme (Candida albicans, UniProt O74189).
T1 construct: 25 μg of Candida albicans membrane protein; endogenous in cells
T1 sequence (O74189 1-877): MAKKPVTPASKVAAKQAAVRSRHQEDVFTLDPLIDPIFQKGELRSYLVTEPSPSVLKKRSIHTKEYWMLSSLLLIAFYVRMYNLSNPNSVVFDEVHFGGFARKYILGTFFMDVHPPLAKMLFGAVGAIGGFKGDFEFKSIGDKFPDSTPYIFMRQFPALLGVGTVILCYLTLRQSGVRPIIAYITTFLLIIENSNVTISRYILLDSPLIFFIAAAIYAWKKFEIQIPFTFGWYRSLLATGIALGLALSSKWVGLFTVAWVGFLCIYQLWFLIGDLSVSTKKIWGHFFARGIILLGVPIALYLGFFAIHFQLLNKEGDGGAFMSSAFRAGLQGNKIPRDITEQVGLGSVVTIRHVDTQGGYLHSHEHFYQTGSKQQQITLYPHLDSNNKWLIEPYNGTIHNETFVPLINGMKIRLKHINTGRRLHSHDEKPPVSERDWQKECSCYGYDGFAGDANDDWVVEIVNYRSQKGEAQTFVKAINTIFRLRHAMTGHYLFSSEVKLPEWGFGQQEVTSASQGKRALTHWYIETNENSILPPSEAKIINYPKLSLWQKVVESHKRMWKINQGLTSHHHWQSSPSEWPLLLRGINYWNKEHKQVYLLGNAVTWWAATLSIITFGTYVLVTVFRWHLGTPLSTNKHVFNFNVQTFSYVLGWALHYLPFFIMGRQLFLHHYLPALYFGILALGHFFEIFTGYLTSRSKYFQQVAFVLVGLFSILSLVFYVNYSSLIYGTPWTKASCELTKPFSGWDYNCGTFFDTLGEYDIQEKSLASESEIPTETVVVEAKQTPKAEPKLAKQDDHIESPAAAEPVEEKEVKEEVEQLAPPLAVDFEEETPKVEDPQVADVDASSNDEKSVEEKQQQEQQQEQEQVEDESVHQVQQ
Briefly: PMT-1 assay. The data set is classed as biochemical. The note with it: Candida albicans membrane protein, peptide DYATAV, dolicholphospho-[3H]-mannose, 60 minutes at 25° C., pH 8.0; read-out: PMT-1 Inhibition (IC50). On the procedure:
The assay method is based upon the transfer of a radiolabelled mannose moiety from dolicholphosphomannose onto a threonine hydroxyl residue in a short peptide, as catalysed by the Candida albicans PMT-1 enzyme. Dolicholphospho-[^3H]-mannose is synthesised enzymatically from GDP-[^3H]-mannose and purified by chloroform: methanol extraction.
100000 Dpm of the generated substrate is incubated with 400 μg phosphatidylcholine, 25 μg of peptide (DYATAV) and 25 μg of Candida albicans membrane protein in a final volume of 50 μl in 100 mM Tris/1 mM MgCl2 buffer, pH 8.0. After 60 minutes at 25° C., the reaction is stopped with 50 μl of methanol. The unreacted radiolabel is removed by the addition of 150 μl of 0.4 g/ml octadecyl-functionalised silica (C18) in methanol. The C18 material is removed by centrifugation and the activity transferred to the peptide is counted in the supernatant.

For `CCCCCN(CCCCC)C(=O)c1cc(/C=C2\SC(=S)N(CC(=O)O)C2=O)ccc1OCc1ccc(F)cc1F` [Example 49, 5-[[[3-(N,N-Dipentylamino)carbonyl-4-[(2,4-difluorophenyl)-methoxy]]phenyl]methylene]-4-oxo-2-thioxo-3-thiazolidineacetic acid], the IC50 in data set [1] and in data set [2] was 700 nM in each case.

`CCCCCN(CCCCC)C(=O)c1cc(/C=C2\SC(=S)N(CC(=O)O)C2=O)ccc1OCc1ccccc1` [Example 34, 5-[[[3-(N,N-Dipentylamino)carbonyl-4-(phenylmethoxy)]-phenyl]methylene]-4-oxo-2-thioxo-3-thiazolidineacetic acid]: the IC50 is 1500 nM in data set [1] and 2500 nM in data set [2].

As to `C[C@@H](c1ccccc1)N(Cc1ccccc1)C(=O)c1cc(/C=C2\SC(=S)N(CC(=O)O)C2=O)ccc1OCc1ccccc1` [Example 35, 5-[[[3-((S)-N-Benzyl-N-alpha-methylbenzylamino)carbonyl-4-(phenyl-methoxy)]-phenyl]methylene]-4-oxo-2-thioxo-3-thiazolidineacetic acid], the melting point was in the range of 204 to 209 °C. Further, the IC50 in data set [1] was 650 nM. The IC50 in data set [2] came to 600 nM.

Source of the values: US6740670B2, “Thiazolidine derivatives and its use as antifungal agent” (Oxford Glycosciences (UK) Ltd., priority 2000, dated 2004).
